Data reported in ChEMBL document CHEMBL1201862, “PubChem BioAssay data set” (2004).
Active and inactive are the calls of the source.

Tests used:
[1] = molecular target: Prothrombin (Homo sapiens, UniProt P00734); experiment: Thrombin 1536 HTS Dose Response Confirmation. [Related pubchem assays: 1046 (Thrombin 1536 HTS; hits were confirmed in this assay)]; assay type: functional
[2] = molecular target: Kallikrein-7 (Homo sapiens, UniProt P49862); experiment: Fluorescence Intensity-based biochemical primary high throughput dose response assay to identify activators of kallikrein-7 (K7) zymogen.
[3] = viability loss in CEM21 cells – cell-based, CellTiter-Glo luminescence, cherry-picked, cytotoxicity control for viral fusion inhibitor project, dose response (AID 652042); assay type: functional;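 note: potency for signal decrease meaning cytotoxicity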
[4] = blockers of HIV-1 ZM109 envelope-driven cell-cell fusion – HeLa effector, CEM target cells, luciferase, cherry-pick, dose response (AID 652058); assay type: functional, cell-based;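 note: luciferase signal from HIV-1 Env mediated cell-cell fusion of effector and target cells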
[5] = off-target signal loss in HeLa-CEM21 co-culture – HeLa F-luc CTL cells, cherry-picked, counter-screen for HIV-1 Env fusion inhibitor project, dose response (AID 652040); assay type: functional, cell-based;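 note: potency for signal decrease marking cytotoxic or nonspecific inhibition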
[6] = HIV-1 AD8 envelope cell-cell fusion blockers – cherry-pick, dose response (AID 652062); assay type: functional, cell-based;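 note: luciferase signal from cell-cell fusion driven by HIV-1 clade B AD8 Env; potency is for inhibitors of fusion seen as a drop in luminescence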
[7] = blockers of HIV-1 envelope-mediated cell-cell fusion – cherry-pick, dose response (AID 652057); assay type: functional, cell-based
[8] = Luminescence Cell-Based Dose Retest to Confirm Inhibitors of Cancer Stem Cells. [Related pubchem assays (depositor defined):AID2717, AID2721]; assay type: functional; conditions: Homo sapiens
[9] = test system: Vero; experiment: mammalian cell viability reduction – secondary assay, cytotoxicity control for West Nile virus antiviral project, dose response (AID 1650); assay type: functional; conditions: Chlorocebus sabaeus
[10] = Luminescence Cell-Based Dose Confirmation HTS to Identify Activators of 5'UTR Stem-Loop Driven Alpha-Synuclein mRNA Translation in H4 Neuroglioblastoma Cells. [Related pubchem assays: 1829 (Project Summary), 1814 (Primary HTS)]; assay type: functional
[11] = test system: H4; experiment: Luminescence Cell-Based Dose Response HTS to Identify Activators of 5'UTR Stem-Loop Driven Prion Protein mRNA Translation in H4 Neuroglioblastoma Cells. [Related pubchem assays: 1829 (Project Summary), 1814 (Primary HTS)]; assay type: functional; conditions: Homo sapiens
[12] = test system: Vero; experiment: cells; assay type: functional; conditions: Chlorocebus sabaeus
[13] = Luminescence Cell-Based Dose Response HTS to Identify Activators of Luciferase Translation or Activity in H4 […] Cells. [Related pubchem assays: 1829 (Project Summary), 1814 (Primary HTS)]; assay type: functional
[14] = molecular target: Nonstructural protein 1 (Influenza A virus, UniProt Q194T2); assay type: functional, Influenza A virus (A/California/07/2009(H1N1))
[15] = Trypanosoma cruzi growth suppression in host cells – NIH3T3 host cells, beta-gal luminescence, confirmation (AID 2044); assay type: functional, cell-based;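 note: intracellular parasites grown in NIH/3T3 mouse fibroblasts as host cells; luminescent beta-galactosidase reporter signal from transgenic T. cruzi replicating inside host cells; inhibitors lower the luminescence signal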
[16] = NIH3T3 cell viability loss – ATP luminescence, mouse fibroblasts, counter-screen, dose response (AID 2010); assay type: functional, cell-based;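 note: cells exposed to compound for about 90 hours before reading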
[17] = viability inhibitors of stage V gametocytes – luminescence, dose response (AID 1117278); assay type: functional, cell-based;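 note: gametocytes exposed to compound for 24 hours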
[18] = viability loss in human Jurkat cells – cell-based, luminescence, cytotoxicity control for P. falciparum gametocyte viability project, dose response (AID 1117277); assay type: functional;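 note: potency reflects loss of cellular ATP meaning fewer viable cells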
[19] = molecular target: T1, Carboxy-terminal domain RNA polymerase II polypeptide A small phosphatase 1 (Homo sapiens, UniProt Q9GZU7); experiment: CTDSP1 inhibitors, concentration-response, biochemical, absorbance readout, ultra-high-throughput screen actives (AID 540297); assay type: functional
T1 sequence (Q9GZU7 whole entry): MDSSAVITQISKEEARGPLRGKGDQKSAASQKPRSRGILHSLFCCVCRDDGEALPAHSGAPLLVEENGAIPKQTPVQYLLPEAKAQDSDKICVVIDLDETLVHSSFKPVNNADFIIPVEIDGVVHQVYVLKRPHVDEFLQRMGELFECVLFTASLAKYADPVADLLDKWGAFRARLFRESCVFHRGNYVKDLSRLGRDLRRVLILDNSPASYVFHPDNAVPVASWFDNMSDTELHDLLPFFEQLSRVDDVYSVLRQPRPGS

[20] = molecular target: DNA dC->dU-editing enzyme APOBEC-3A (Homo sapiens, UniProt P31941); experiment: Dose Response confirmation of small molecule APOBEC3A DNA Deaminase Inhibitors via a fluorescence-based single-stranded DNA deaminase assay. [Related pubchem assays (depositor defined):AID493011, AID493024]; assay type: functional
[21] = molecular target: DNA dC->dU-editing enzyme APOBEC-3G (Homo sapiens, UniProt Q9HC16); assay type: functional;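 note: Dose-response counterscreen measuring inhibition of APOBEC3G DNA deaminase activity, run while confirming APOBEC3A inhibitors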
[22] = molecular target: Cytochrome P450 2D6 (Homo sapiens, UniProt P10635);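 note: CYP2D6 member of a cytochrome P450 panel assay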
[23] = molecular target: T2, Beta-galactosidase (Escherichia coli, UniProt Q8VNN2); experiment: detection-enzyme interference by beta-gal modulators – biochemical, E. coli enzyme, set 3, artefact control for CCR6 antagonist project, dose response (AID 504712); assay type: functional
[24] = molecular target: Heat shock protein HSP 90-alpha (Homo sapiens, UniProt P07900); assay type: functional, organism-based
[25] = molecular target: T2, Beta-galactosidase; experiment: Dose response counterscreen for EBI2 assay utilizing the enzyme, b-galactosidase.; assay type: functional
[26] = molecular target: T3, Aminopeptidase N (Plasmodium falciparum FcB1/Columbia, UniProt O96935); experiment: malaria alanyl aminopeptidase activity blockers – biochemical, fluorogenic H-Leu-NHMec substrate, 1536-well (AID 1445); parameters: species or system Plasmodium falciparum 3D7, 3D7
T3 sequence (O96935 whole entry): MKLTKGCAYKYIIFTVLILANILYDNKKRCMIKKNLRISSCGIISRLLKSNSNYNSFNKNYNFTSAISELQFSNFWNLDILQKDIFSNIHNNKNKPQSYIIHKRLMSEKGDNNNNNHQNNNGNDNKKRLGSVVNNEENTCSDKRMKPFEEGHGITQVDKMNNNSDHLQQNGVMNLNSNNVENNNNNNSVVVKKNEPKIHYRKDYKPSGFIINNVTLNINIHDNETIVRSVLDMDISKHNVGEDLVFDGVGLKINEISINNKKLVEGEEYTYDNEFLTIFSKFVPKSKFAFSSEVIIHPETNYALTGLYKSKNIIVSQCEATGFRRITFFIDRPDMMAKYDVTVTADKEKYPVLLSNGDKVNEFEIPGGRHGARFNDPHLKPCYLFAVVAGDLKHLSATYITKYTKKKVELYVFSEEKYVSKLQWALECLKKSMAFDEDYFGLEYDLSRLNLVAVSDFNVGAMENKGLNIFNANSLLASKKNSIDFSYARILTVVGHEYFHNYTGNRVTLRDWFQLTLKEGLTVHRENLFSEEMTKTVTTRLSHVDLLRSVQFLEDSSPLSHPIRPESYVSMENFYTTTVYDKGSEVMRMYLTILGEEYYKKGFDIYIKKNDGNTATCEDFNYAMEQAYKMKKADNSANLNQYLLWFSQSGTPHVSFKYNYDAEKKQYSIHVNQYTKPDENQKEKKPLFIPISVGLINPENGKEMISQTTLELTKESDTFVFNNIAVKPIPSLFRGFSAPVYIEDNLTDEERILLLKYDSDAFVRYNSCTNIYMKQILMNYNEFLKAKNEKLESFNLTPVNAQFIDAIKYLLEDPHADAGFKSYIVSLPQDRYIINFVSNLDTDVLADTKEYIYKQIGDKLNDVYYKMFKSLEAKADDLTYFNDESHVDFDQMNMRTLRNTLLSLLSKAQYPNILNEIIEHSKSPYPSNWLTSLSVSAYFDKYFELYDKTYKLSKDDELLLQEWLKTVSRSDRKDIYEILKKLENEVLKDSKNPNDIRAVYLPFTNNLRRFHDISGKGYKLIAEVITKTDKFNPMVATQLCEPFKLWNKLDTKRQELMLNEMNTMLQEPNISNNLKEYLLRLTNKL

[27] = molecular target: Cytochrome P450 2C19 (Homo sapiens, UniProt P33261); experiment: Cytochrome panel assay with activity outcomes. Panel member name: p450-cyp2c19 Compounds with AC50 equal or less than 10 uM are considered active; assay type: functional; conditions: read-out: AC50
[28] = molecular target: T4, Protein Tat (Human immunodeficiency virus type 1 group M subtype B (isolate HXB2)(HIV-1), UniProt P04608); assay type: functional;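 note: tat binding to TAR RNA read out by fluorescence polarization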
T4 sequence (P04608 whole entry): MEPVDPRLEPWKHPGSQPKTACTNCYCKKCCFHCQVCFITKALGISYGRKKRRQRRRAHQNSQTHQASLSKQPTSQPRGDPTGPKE

[29] = molecular target: Paired box protein Pax-8 (Homo sapiens, UniProt Q06710); experiment: PAX8 transcriptional activity inhibition in RMG-I – RMG-I cells, luciferase, cherry-pick, dose response (AID 687027); assay type: functional, cell-based;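 note: luciferase reporter driven by Pax8 target thyroperoxidase promoter measured by SteadyGlo luminescence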
[30] = OVCAR-3 cell viability loss – plate reader, dry powder samples, PAX8 inhibitor project, dose response (AID 743044); assay type: functional, cell-based
[31] = OVCAR8 cell viability loss – plate reader, dry powder samples, PAX8 project, dose response (AID 743197); assay type: functional, cell-based; conditions: OVCAR-8
[32] = IGROV1 cell killing – plate reader, dry powder samples, PAX8 inhibitor project, dose response (AID 743043); assay type: functional, cell-based; conditions: IGROV-1

DNA dC->dU-editing enzyme APOBEC-3A, sequence (P31941 whole entry): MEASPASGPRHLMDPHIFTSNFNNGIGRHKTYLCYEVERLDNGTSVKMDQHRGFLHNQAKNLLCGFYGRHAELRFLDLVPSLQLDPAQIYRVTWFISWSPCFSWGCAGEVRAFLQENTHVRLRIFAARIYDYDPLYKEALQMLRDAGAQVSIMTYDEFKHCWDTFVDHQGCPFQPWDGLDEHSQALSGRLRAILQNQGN
DNA dC->dU-editing enzyme APOBEC-3G, sequence (Q9HC16 whole entry): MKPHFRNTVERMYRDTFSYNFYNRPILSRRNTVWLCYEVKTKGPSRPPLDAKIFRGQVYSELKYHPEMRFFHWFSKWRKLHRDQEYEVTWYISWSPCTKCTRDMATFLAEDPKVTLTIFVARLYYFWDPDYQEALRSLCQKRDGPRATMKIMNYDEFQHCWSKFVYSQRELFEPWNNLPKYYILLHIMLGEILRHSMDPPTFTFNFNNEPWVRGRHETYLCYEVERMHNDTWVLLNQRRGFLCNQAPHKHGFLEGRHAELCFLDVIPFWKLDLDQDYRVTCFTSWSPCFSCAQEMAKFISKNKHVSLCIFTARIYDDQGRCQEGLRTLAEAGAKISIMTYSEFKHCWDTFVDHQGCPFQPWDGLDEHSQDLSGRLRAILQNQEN
T2 sequence (Q8VNN2 whole entry): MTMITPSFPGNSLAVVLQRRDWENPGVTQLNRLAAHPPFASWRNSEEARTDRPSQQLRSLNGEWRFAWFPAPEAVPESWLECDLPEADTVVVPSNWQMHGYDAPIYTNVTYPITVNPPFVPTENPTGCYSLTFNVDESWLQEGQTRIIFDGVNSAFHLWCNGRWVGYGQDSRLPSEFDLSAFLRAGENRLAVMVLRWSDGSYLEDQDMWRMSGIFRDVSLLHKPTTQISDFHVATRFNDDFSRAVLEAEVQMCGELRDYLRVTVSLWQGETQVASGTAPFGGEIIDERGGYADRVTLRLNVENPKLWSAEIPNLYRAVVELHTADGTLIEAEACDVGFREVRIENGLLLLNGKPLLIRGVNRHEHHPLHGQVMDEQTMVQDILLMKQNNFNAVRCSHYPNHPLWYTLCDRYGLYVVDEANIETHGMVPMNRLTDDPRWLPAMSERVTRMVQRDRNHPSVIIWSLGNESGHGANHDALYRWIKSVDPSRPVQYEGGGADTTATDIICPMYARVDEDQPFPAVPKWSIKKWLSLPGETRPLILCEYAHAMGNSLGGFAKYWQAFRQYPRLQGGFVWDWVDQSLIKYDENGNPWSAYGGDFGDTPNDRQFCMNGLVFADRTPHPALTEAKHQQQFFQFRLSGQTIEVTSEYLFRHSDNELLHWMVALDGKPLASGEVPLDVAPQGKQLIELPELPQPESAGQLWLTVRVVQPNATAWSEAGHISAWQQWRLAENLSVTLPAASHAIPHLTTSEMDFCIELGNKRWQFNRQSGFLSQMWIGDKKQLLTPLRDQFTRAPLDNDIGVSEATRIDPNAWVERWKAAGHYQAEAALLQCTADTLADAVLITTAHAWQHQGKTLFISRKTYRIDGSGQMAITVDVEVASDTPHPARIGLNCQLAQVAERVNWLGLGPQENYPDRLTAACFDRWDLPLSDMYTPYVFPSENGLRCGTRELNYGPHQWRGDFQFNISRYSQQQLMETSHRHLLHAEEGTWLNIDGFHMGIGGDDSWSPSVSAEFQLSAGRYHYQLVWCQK
Nonstructural protein 1, sequence (Q194T2 whole entry): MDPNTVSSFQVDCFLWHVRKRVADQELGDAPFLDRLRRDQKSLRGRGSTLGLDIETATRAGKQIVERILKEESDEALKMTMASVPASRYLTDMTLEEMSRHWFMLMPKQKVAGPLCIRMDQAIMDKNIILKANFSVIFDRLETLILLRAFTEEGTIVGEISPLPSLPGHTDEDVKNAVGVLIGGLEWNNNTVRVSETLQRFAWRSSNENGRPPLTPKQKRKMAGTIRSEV
Paired box protein Pax-8, sequence (Q06710 whole entry): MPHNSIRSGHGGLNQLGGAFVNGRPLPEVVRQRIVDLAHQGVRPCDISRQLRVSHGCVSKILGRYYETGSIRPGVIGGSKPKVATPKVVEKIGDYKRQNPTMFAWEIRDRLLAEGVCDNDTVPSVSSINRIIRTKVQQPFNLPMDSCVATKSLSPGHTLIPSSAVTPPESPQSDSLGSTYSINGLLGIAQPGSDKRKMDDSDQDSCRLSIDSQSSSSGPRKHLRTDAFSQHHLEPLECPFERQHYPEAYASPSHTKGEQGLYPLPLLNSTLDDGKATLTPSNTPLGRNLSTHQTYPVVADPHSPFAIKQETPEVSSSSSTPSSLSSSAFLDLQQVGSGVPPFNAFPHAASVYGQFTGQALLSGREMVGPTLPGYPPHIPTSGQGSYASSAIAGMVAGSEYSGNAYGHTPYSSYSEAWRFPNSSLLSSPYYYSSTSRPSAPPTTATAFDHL
Cytochrome P450 2D6, sequence (P10635 whole entry): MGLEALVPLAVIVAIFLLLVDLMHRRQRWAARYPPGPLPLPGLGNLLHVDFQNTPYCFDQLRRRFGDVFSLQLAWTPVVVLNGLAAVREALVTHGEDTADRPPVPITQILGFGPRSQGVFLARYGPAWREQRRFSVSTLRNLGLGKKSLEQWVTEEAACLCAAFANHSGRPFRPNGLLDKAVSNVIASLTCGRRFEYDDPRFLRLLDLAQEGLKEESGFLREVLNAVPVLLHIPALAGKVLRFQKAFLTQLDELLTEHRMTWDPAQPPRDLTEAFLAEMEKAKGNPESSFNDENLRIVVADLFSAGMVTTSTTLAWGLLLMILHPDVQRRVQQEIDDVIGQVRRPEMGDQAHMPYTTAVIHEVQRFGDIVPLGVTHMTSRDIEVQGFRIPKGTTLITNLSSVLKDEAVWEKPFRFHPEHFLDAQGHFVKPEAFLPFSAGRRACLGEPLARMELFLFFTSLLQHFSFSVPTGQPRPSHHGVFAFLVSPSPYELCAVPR
Cytochrome P450 2C19, sequence (P33261 whole entry): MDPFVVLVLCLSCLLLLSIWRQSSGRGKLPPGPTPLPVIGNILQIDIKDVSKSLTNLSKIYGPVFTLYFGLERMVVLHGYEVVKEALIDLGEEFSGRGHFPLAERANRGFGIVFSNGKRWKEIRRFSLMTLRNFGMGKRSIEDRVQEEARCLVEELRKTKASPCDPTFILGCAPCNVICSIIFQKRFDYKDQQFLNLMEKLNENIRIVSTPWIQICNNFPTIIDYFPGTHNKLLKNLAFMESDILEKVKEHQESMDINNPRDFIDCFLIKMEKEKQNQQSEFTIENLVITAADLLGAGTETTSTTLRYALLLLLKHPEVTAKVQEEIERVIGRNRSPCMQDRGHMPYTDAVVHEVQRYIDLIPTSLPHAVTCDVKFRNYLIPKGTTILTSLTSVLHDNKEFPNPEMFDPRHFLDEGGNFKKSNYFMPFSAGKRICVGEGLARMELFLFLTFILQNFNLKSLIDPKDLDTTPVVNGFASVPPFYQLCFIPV
Kallikrein-7, sequence (P49862 whole entry, the tested form may be a part): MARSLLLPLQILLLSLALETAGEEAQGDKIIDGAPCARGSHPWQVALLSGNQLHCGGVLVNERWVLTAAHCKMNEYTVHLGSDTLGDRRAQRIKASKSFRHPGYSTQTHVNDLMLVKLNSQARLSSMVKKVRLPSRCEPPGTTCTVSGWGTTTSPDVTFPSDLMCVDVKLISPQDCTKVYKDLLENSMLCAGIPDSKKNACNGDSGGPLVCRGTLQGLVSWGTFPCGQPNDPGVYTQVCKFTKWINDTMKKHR

With `O=C(c1ccco1)n1nc(-c2ccco2)nc1SCc1ccccc1` the IC50 [1] was 0.201 µM (active).
With `CCOC(=O)C1CCN(S(=O)(=O)c2cccc(-c3cn4cccnc4n3)c2)CC1` the EC50 [2] was > 69.5 µM (inactive).
For `Cc1oc(-c2cccc(Cl)c2)nc1CN1CCCC(C(=O)NC(C)c2ccc3c(c2)OCCO3)C1` (centres undefined), the AC50 [3] was 54.5 µM (active), the AC50 [4] was 3.47 µM (active) and the AC50 [5] was 3.92 µM (active). For the same compound, the AC50 [6] was 4.68 µM (active) and the AC50 [7] was 2.58 µM (active).
In the case of `CC1=NN(c2ccccc2)C(=O)/C1=C\C=C\c1ccccc1`, the AC50 [8] is reported as 4.82 µM (active), the CC50 [9] is reported as 26.8 µM (active) and the EC50 [10] is reported as > 120 µM (not active). For the same compound, the EC50 [11] was > 120 µM (not active), the CC50 [12] was 12.1 µM (active) and the EC50 [13] was 27.3 µM (active).
With `COc1ccc(-n2nc([N+](=O)[O-])c(NCCC3=CCCCC3)[n+]2[O-])cc1` the IC50 [14] was 41.3 µM (active), the EC50 [15] was 0.534 µM (active) and the EC50 [16] was > 60 µM (not active).
In the case of `CCN(CC)c1ccc(NC(=O)CN2CCN(CC(=O)Nc3ccccc3OC)CC2)cc1`, the IC50 [14] is reported as 79.6 µM (active).
With `NCCCN1CCOCC1` the IC50 [17] was > 109 µM (inactive) and the IC50 [18] was > 83.4 µM (inactive).
In the case of `C[N+]1(CC(=O)OCCCc2ccccc2)CCOCC1`, the IC50 [19] is reported as 6.39 µM (active), the IC50 [20] is reported as 1.27 µM (active) and the IC50 [21] is reported as 1.93 µM (active). The AC50 [22] was 12.6 µM (inconclusive).
With `CC(=NNc1ccc2ccccc2n1)c1ccccc1O` the IC50 [23] was > 66.6 µM (inactive).
With `COc1ccc(C(=O)/C=C2\C(=O)Nc3ccc(Br)cc32)cc1` the CC50 [12] was 14.9 µM (active), the AC50 [24] was 1.59 µM (active) and the IC50 [25] was 71.6 µM (inactive).
In the case of `CCCCN(C(=O)c1cnccn1)c1c(N)n(CCC)c(=O)[nH]c1=O`, the IC50 [20] is reported as 13.7 µM (active) and the IC50 [21] is reported as 15.5 µM (active).
In the case of `CS(=O)(=O)N(CC(=O)N1CCC(C(N)=O)CC1)C1CCCCC1`, the IC50 [17] is reported as > 109 µM (inactive) and the IC50 [18] is reported as > 83.3 µM (inactive).
For `CC(=O)/N=C1\C(=O)N(C)c2cccc3c(O)c4ccccc4c1c23`, the IC50 [26] was 27.9 µM (active), the AC50 [27] was 14.1 µM (inconclusive) and the IC50 [28] was > 100 µM (active).
With `C[C@H]1CCCCO[C@@H](CN(C)S(=O)(=O)c2ccccc2)[C@@H](C)CN([C@@H](C)CO)C(=O)c2cc(NC(=O)Nc3ccc(C(F)(F)F)cc3)ccc2O1` the AC50 [29] was 6.6 µM (active), the AC50 [30] was 19.4 µM (active) and the AC50 [31] was 52.4 µM (active). For the same compound, the AC50 [32] was 53.1 µM (active).
With `CC(O)C(=O)N/N=C/c1cccc2ccccc12` (centres undefined) the IC50 [1] was 48.8 µM (active).
